Consider three molecules from US9669029B2, “Heteroaromatic phenylimidazole derivatives as PDE10A enzyme inhibitors” (H. Lundbeck A/S, priority 2009, dated 2017).

For one experiment, the target named is PDE10A (Homo sapiens (Human), UniProt Q9Y233). Kind of experiment: PDE10A inhibition assay. Format: biochemical. On the procedure:
Active PDE10A enzyme is prepared in a number of ways for use in PDE assays (Loughney, K. et al. Gene 1999, 234, 109-117; Fujishige, K. et al. Eur J Biochem. 1999, 266, 1118-1127 and Soderling, S. et al. Proc. Natl. Acad. Sci. 1999, 96, 7071-7076). PDE10A can be expressed as full-length proteins or as truncated proteins, as long as they express the catalytic domain. PDE10A can be prepared in different cell types, for example insect cells or E. coli. […]
A PDE10A assay may for example, be performed as follows: The assay is performed in 60 uL samples containing a fixed amount of the relevant PDE enzyme (sufficient to convert 20-25% of the cyclic nucleotide substrate), a buffer (50 mM HEPES7.6; 10 mM MgCl2; 0.02% Tween20), 0.1 mg/ml BSA, 225 pCi of ^3H-labelled cyclic nucleotide substrate, tritium labeled cAMP to a final concentration of 5 nM and varying amounts of inhibitors. […] The beads are allowed to settle for one hr in the dark before the plates are counted in a Wallac 1450 Microbeta counter. The measured signal can be converted to activity relative to an uninhibited control (100%) and IC50 values can be calculated using the Xlfit extension to EXCEL.

In another experiment the test system is rats. The conditions noted are these: cited from earlier work.

Chain of PDE10A (Q9Y233 716-1055): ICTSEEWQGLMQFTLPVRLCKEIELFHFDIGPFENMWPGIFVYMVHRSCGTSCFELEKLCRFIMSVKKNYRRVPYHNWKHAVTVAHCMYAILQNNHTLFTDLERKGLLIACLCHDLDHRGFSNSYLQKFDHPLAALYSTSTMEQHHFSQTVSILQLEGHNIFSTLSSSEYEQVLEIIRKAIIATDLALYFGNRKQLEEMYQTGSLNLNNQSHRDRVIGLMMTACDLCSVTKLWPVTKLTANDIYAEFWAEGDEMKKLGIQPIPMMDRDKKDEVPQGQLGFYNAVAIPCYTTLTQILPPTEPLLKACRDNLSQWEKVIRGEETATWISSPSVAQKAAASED

`COc1cccn2nc(/C=C/c3nc(-c4ccc(C)o4)cn3C)nc12` [8-Methoxy-2-{(E)-2-[1-methyl-4-(5-methyl-furan-2-yl)-1H-imidazol-2-yl]-vinyl}-[1,2,4]triazolo[1,5-a]pyridine] came in with an IC50 at PDE10A of 140 nM.
On PDE10A, `Cc1cccn2nc(CCc3nc(-c4cccnc4)cn3C)nc12` [8-Methyl-2-[2-(1-methyl-4-pyridin-3-yl-1H-imidazol-2-yl)-ethyl]-[1,2,4]triazolo[1,5-a]pyridine] showed an IC50 of 75 nM.
For the molecule `COc1ccc(Cc2nccc3cc(OC)c(OC)cc23)cc1OC` [Papaverine, papaverine], the “catalepsy on its own” value in the experiment with rats (papaverine alone) is “did not cause catalepsy”. Further, the “effect on the cataleptic effect of the D2 receptor antagonist haloperidol” value in the experiment with rats (with haloperidol) is reported as “potentiated”.
